We go through 13 molecules from patent US10173982B2, “Picolinamides as fungicides” (Dow AgroSciences LLC, priority 2016, dated 2019).

Where two headings read alike, the source gives them in different places.

What all share (type): in vivo
For assay [1], the system named is Zymoseptoria tritici. In words: Fungicidal activity: leaf blotch of wheat (SEPTTR), percent disease control on wheat seedlings. The note with it: Zymoseptoria tritici, LV (low volume) activity at 121.5 g/H. The procedure: Technical grades of materials were dissolved in acetone, which were then mixed with nine volumes of water containing 110 ppm Triton X-100. The fungicide solutions were applied onto wheat seedlings using an automated booth sprayer to run-off. All sprayed plants were allowed to air dry prior to further handling. All fungicides were evaluated using the aforementioned method for their activity vs. all target diseases, unless stated otherwise. Wheat leaf blotch and brown rust activity were also evaluated using track spray applications, in which case the fungicides were formulated as EC formulations, containing 0.1% Trycol 5941 in the spray solutions. Wheat plants (variety Yuma) were grown from seed in a greenhouse in 50% mineral soil/50% soil-less Metro mix until the first leaf was fully emerged, with 7-10 seedlings per pot. These plants were inoculated with an aqueous spore suspension of Zymoseptoria tritici either prior to or after fungicide treatments. After inoculation the plants were kept in 100% relative humidity (one day in a dark dew chamber followed by two to three days in a lighted dew chamber at 20° C.) to permit spores to germinate and infect the leaf. The plants were then transferred to a greenhouse set at 20° C. for disease to develop. When disease symptoms were fully expressed on the 1st leaves of untreated plants, infection levels were assessed on a scale of 0 to 100 percent disease severity. Percent disease control was calculated using the ratio of disease severity on treated plants relative to untreated plants.

Assay [2] has as its system Puccinia triticina. The assay can be described thus: Fungicidal activity: wheat brown rust (PUCCRT), percent disease control on wheat seedlings. The note with it: Puccinia triticina, LV (low volume) activity at 121.5 g/H. The procedure:
Technical grades of materials were dissolved in acetone, which were then mixed with nine volumes of water containing 110 ppm Triton X-100. The fungicide solutions were applied onto wheat seedlings using an automated booth sprayer to run-off. All sprayed plants were allowed to air dry prior to further handling. All fungicides were evaluated using the aforementioned method for their activity vs. all target diseases, unless stated otherwise. Wheat leaf blotch and brown rust activity were also evaluated using track spray applications, in which case the fungicides were formulated as EC formulations, containing 0.1% Trycol 5941 in the spray solutions. Wheat plants (variety Yuma) were grown from seed in a greenhouse in 50% mineral soil/50% soil-less Metro mix until the first leaf was fully emerged, with 7-10 seedlings per pot. These plants were inoculated with an aqueous spore suspension of Puccinia triticina either prior to or after fungicide treatments. After inoculation the plants were kept in a dark dew room at 22° C. with 100% relative humidity overnight to permit spores to germinate and infect the leaf. The plants were then transferred to a greenhouse set at 24° C. for disease to develop. Fungicide formulation, application and disease assessment followed the procedures as described in the Example A. Results of the evaluations are shown below in Table 4.

Assay [3] deals with Phakopsora pachyrhizi. The assay can be described thus: Fungicidal activity: Asian soybean rust (PHAKPA), disease control on soybean seedlings. The note with it: High volume at 25 ppm. The procedure: Technical grades of materials were dissolved in acetone, which were then mixed with nine volumes of water containing 0.011% Tween 20. The fungicide solutions were applied onto soybean seedlings using an automated booth sprayer to run-off. All sprayed plants were allowed to air dry prior to further handling.
Soybean plants (variety Williams 82) were grown in soil-less Metro mix, with one plant per pot. Two weeks old seedlings were used for testing. Plants were inoculated either 3 days prior to or 1 day after fungicide treatments. Plants were incubated for 24 h in a dark dew room at 22° C. and 100% relative humidity then transferred to a growth room at 23° C. for disease to develop. Disease severity was assessed on the sprayed leaves.

[4] abbreviates: 24 h, 1 Day Protectant, read-out: SEPTTR 1DP disease control rating.
Where [5] appears, read: 72 h, 3 Day Curative, read-out: SEPTTR 3DC disease control rating.
Setting [6] is: 24 h, 1 Day Protectant, read-out: PUCCRT 1DP disease control rating.
The mark [7] stands for this setting: 72 h, 3 Day Curative, read-out: PUCCRT 3DC disease control rating.
[8] abbreviates: 24 h, 1 Day Protectant, read-out: PHAKPA 1DP disease control rating.
Where [9] appears, read: 72 h, 3 Day Curative, read-out: PHAKPA 3DC disease control rating.

Consider `COc1ccnc(C(=O)N[C@@H](C)C(=O)O[C@@H](C)[C@H](SCc2ccccc2)c2ccccc2)c1OC(C)=O` [Compound 68], for which the pest or weed control at 121.5 g/ha was more than 80% in assay [1] (setting [4]), not above 80% in assay [1] (setting [5]), more than 80% in assay [2] (setting [6]) and more than 80% in assay [2] (setting [7]). Besides, the pest or weed control at 25 ppm is more than 80% in assay [3] (setting [8]) and not above 80% in assay [3] (setting [9]).

Turning to `COc1ccnc(C(=O)N[C@@H](C)C(=O)O[C@@H](C)[C@H](SCC(C)C)c2ccccc2)c1OC(C)=O` [Compound 69], the pest or weed control at 121.5 g/ha in assay [1] (setting [4]) is not above 80%; in assay [1] (setting [5]), not above 0%; in assay [2] (setting [6]), more than 80%; in assay [2] (setting [7]), not above 80%. Also, the pest or weed control at 25 ppm in assay [3] (setting [8]) is more than 80%; in assay [3] (setting [9]) it was not above 80%.

Turning to `COc1ccnc(C(=O)N[C@@H](C)C(=O)O[C@@H](C)[C@H](SC(C)C)c2ccccc2)c1OC(C)=O` [Compound 70], the pest or weed control at 121.5 g/ha was not above 80% in assay [1] (setting [4]), more than 80% in assay [1] (setting [5]), more than 80% in assay [2] (setting [6]) and not above 80% in assay [2] (setting [7]). The pest or weed control at 25 ppm in assay [3] (setting [8]) was more than 80%; in assay [3] (setting [9]) it was not above 80%.

Consider `COc1ccnc(C(=O)N[C@@H](C)C(=O)O[C@@H](C)[C@H](Sc2ccc(C(F)(F)F)cn2)c2ccccc2)c1OC(C)=O` [Compound 71], for which the pest or weed control at 121.5 g/ha in assay [1] (setting [4]) is not above 80%; in assay [1] (setting [5]) it was not above 80%; in assay [2] (setting [6]), not above 0%; in assay [2] (setting [7]) it was not above 80%. Besides, the pest or weed control at 25 ppm in assay [3] (setting [8]) and in assay [3] (setting [9]) was not above 80% in each case.

In the case of `COc1ccnc(C(=O)N[C@@H](C)C(=O)O[C@@H](C)[C@H](Sc2ccc(F)cc2C)c2ccc(F)cc2C)c1OC(C)=O` [Compound 76], the pest or weed control at 121.5 g/ha is more than 80% in assay [1] (setting [4]), more than 80% in assay [1] (setting [5]), not above 80% in assay [2] (setting [6]) and not above 0% in assay [2] (setting [7]). The pest or weed control at 25 ppm in assay [3] (setting [8]) and in assay [3] (setting [9]) was not above 80% each time.

As for `COc1ccnc(C(=O)N[C@@H](C)C(=O)O[C@@H](C)[C@H](Sc2ccccc2)c2ccc(C)cc2)c1OC(C)=O` [Compound 77], the pest or weed control at 121.5 g/ha was more than 80% in assay [1] (setting [4]), not above 80% in assay [1] (setting [5]), more than 80% in assay [2] (setting [6]) and not above 80% in assay [2] (setting [7]). For the same molecule, the pest or weed control at 25 ppm in assay [3] (setting [8]) and in assay [3] (setting [9]) was not above 80% throughout.

Take `COc1ccnc(C(=O)N[C@@H](C)C(=O)O[C@@H](C)[C@H](Sc2ccccc2)c2ccc(F)cc2C)c1OC(C)=O` [Compound 78]: the pest or weed control at 121.5 g/ha in assay [1] (setting [4]) was more than 80%; in assay [1] (setting [5]), more than 80%; in assay [2] (setting [6]), not above 80%; in assay [2] (setting [7]), not above 0%. The pest or weed control at 25 ppm in assay [3] (setting [8]) is not above 80%; in assay [3] (setting [9]) it was not above 0%.

For the molecule `COc1ccnc(C(=O)N[C@@H](C)C(=O)O[C@@H](C)[C@H](Sc2ccccc2)c2ccccc2)c1OCOC(=O)C(C)C` [Compound 79], the pest or weed control at 121.5 g/ha was more than 80% in assay [1] (setting [4]), more than 80% in assay [1] (setting [5]), more than 80% in assay [2] (setting [6]) and not above 80% in assay [2] (setting [7]). The pest or weed control at 25 ppm in assay [3] (setting [8]) and in assay [3] (setting [9]) was not above 80% in each case.

Take `COc1ccnc(C(=O)N[C@@H](C)C(=O)O[C@@H](C)[C@H](Sc2ccccc2)c2ccccc2)c1OCOC(C)=O` [Compound 80]: the pest or weed control at 121.5 g/ha in assay [1] (setting [4]) was not above 80%; in assay [1] (setting [5]) it was not above 80%; in assay [2] (setting [6]), more than 80%; in assay [2] (setting [7]), not above 80%. The pest or weed control at 25 ppm in assay [3] (setting [8]) and in assay [3] (setting [9]) was not above 80% in each case.

Take `COc1ccnc(C(=O)N[C@@H](C)C(=O)O[C@@H](C)[C@H](Sc2ccccc2)c2ccccc2)c1OC(=O)C(C)C` [Compound 81]: the pest or weed control at 121.5 g/ha in assay [1] (setting [4]), in assay [1] (setting [5]), in assay [2] (setting [6]) and in assay [2] (setting [7]) was not above 80% in each case. Further, the pest or weed control at 25 ppm in assay [3] (setting [8]) and in assay [3] (setting [9]) was not above 80% throughout.

As to `COc1ccnc(C(=O)N[C@@H](C)C(=O)O[C@@H](C)[C@H](Sc2ccccc2)c2ccccc2)c1OC(C)=O` [Compound 82], the pest or weed control at 121.5 g/ha is not above 80% in assay [1] (setting [4]), not above 80% in assay [1] (setting [5]), more than 80% in assay [2] (setting [6]) and not above 80% in assay [2] (setting [7]). Further, the pest or weed control at 25 ppm in assay [3] (setting [8]) and in assay [3] (setting [9]) was not above 80% each time.

For the molecule `COc1cc(F)ccc1[C@@H](Sc1ccccc1)[C@H](C)OC(=O)[C@H](C)NC(=O)c1nccc(OC)c1OC(C)=O` [Compound 84], the pest or weed control at 121.5 g/ha in assay [1] (setting [4]) was more than 80%; in assay [1] (setting [5]), not above 0%; in assay [2] (setting [6]), not above 80%; in assay [2] (setting [7]), not above 80%. The pest or weed control at 25 ppm was not above 80% in assay [3] (setting [8]) and not above 0% in assay [3] (setting [9]).

As to `COc1ccnc(C(=S)N[C@@H](C)C(=O)O[C@@H](C)[C@H](Sc2ccccc2)c2ccc(F)cc2)c1OC(C)=O` [Compound 85], the pest or weed control at 121.5 g/ha in assay [1] (setting [4]) was not above 80%; in assay [1] (setting [5]), not above 0%; in assay [2] (setting [6]) it was not above 80%; in assay [2] (setting [7]) it was not above 0%. Moreover, the pest or weed control at 25 ppm is not above 80% in assay [3] (setting [8]) and not above 0% in assay [3] (setting [9]).
